Eleven substances from patent US20120016011A1, “RNA Interference Mediated Inhibition of Connective Tissue Growth Factor (CTGF) Gene Expression Using Short Interfering Nucleic Acid (siNA)” (Merck Sharp & Dohme Corp., priority 2009, published 2012) can be followed below.

Data set [1] relates to CTGF mRNA. In words: CTGF mRNA knockdown (Taqman RT-PCR) after siNA transfection of human NHLF cells. Format: cell-based. Particulars: 10 nM siNA, 24 hrs, average of 3 experiments, vs non-targeting control. How it is done: NHLF (Normal human lung fibroblasts; Lonza cat# CC-2512): Cells were cultured at 37° C. in the presence of 5% CO2 and grown in Fibroblast Basal Medium (Lonza cat# CC-3132) supplemented with 2% FBS and growth factors (provided with the kit) and 100 μg/mL of streptomycin and 100 U/mL penicillin.
(§1) Cells were plated in all wells of a tissue-culture treated, 96-well plate at a final count of 5000 cells/well in […], of the appropriate culture media. The cells were cultured for 24 hours after plating at 37° C. in the presence of 5% CO2.
(§2) After 24 hours, complexes containing siNA and RNAiMax were created as follows: A solution of RNAiMax diluted 33-fold in OPTI-MEM was prepared. In parallel, solutions of the siNAs for testing were prepared to a final concentration of 120 nM in OPTI-MEM. After incubation of RNAiMax/OPTI-MEM solution at room temperature for 5 min, an equal volume of the siNA solution and the RNAiMax solution were added together for each of the siNAs.
(§3) This solution was incubated at room temperature for 20 minutes. After incubation, 20 uL of the solution was added to each of the relevant wells. The final concentration of siNA in each well was 10 nM and the final volume of RNAiMax in each well was 0.3 ul.
(§4) The time of incubation with the RNAiMax-siNA complexes was 24 hours and there was no change in media between transfection and harvesting, unless otherwise indicated.
(§5) RNA was extracted from a 96-well plate using the TaqMan® Gene Expression Cells-to-CT™ Kit (Cat# 4399002) with a modified protocol. Briefly, a 60 uL (1 plate) or 110 uL (2 plates) of the Lysis Solution with DNase I was dispensed into each well of the Lysis Buffer Plate (twin.tec full skirt plate). The lysis buffer and stop plates were stored at 4° C. until the cells were washed.
(§6) The plate was spun at 1100 rpm for 5 minutes. The culture medium was aspirated and discarded from the wells of the culture plate. The lysis was performed automatically using a BioMek FX instrument and method. After the Biomek method was completed, the lysis plate was incubated for 2 min. at room temperature. The lysis plate can be stored for 2 hours at 4° C., or at −20° C. or −80° C. for two months.
(§7) Each well of the reverse transcription plate required 10 uL of 2× reverse transcriptase Buffer, 1 uL of 20× reverse transcription enzyme and 2 uL of nuclease-free water. The reverse transcription master mix was prepared by mixing 2× reverse transcription buffer, 20× reverse transcription enzyme mix, and nuclease-free water. 13 uL of the reverse transcription master mix was dispensed into each well of the reverse transcription plate (semi-skirted). A separate reverse transcription plate was prepared for each cell plate. The plate was loaded onto a Biomek NX or Biomek FX Dual -96 and the Biomek method was run. The program is programmed to automatically added 7 uL of lysate from the cell lysis procedure described above into each well of the reverse transcription plate. The plate is sealed and spun on a centrifuge (1000 rpm for 30 seconds) to settle the contents to the bottom of the reverse transcription plate. The plate is placed in a thermocycler at 37° C. for 60 min, 95° C. for 5 min, and 4° C. until the plate is removed from the thermocycler. Upon removal, if not used immediately, the plate was frozen at −20° C.
(§8) A series of probes and primers were used to detect the various mRNA transcripts of the genes of β-Actin (human cell line only), and of CTGF and GAPDH in mouse and human cell lines. All Taqman probes and primers for the experiments here-in described were supplied as pre-validated sets by Applied Biosystems, Inc. (see Table 3).
The assays were performed on an ABI 7900 instrument, according to the manufacturer's instructions. A TaqMan Gene Expression Master Mix (provided in the Cells-to-CT™, Applied Biosystems, Cat # 4399002) was used. The PCR reactions were carried out at 50° C. for 2 min, 95° C. for 20 min followed by 40 cycles at 95° C. for 15 secs and 60° C. for 1 min. […]

In data set [2] the test system is CTGF mRNA. In words: CTGF mRNA knockdown (Taqman RT-PCR) after siNA transfection of mouse NIH 3T3 cells. Format: cell-based. Particulars: mouse NIH3T3 cells, 10 nM siNA, 24 hrs, average of 3 experiments, vs non-targeting control. As to the method: NIH 3T3 (mouse; ATCC cat# CRL-1658): Cells were cultured at 37° C. in the presence of 5% CO2 and grown in Dulbecco's modified Eagle's medium (DMEM) with 4 mM L-glutamine adjusted to contain 1.5 g/L sodium bicarbonate and 4.5 g/L glucose and supplemented with fetal bovine serum at a final concentration of 10%, 100 μg/mL of streptomycin, and 100 U/mL penicillin.
as §1, §2, §3, §4, §5, §6, §7, §8
The assays were performed on an ABI 7900 instrument, according to the manufacturer's instructions. A TaqMan Gene Expression Master Mix (provided in the Cells-to-CT™, Applied Biosystems, Cat # 4399002) was used. […]

[invAb] = inverted abasic unit; m = 2'-O-methyl; r = 2'-OH (RNA); f = 2'-fluoro

On to “48063-DC: siNA duplex; sense SEQ ID NO: 91 B AcAcGAAcucAuuAGAcuA TTB; antisense SEQ ID NO: 92 UAGucuAAuGAGuucGuGuUU (sense ACACGAACUCAUUAGACUATT; antisense UAGUCUAAUGAGUUCGUGUUU; sense: DNA at AGT, 2'-fluoro at CU, [invAb] at 5' end, 3' end, backbone not given here; antisense: sugars from the 5' end rrrfffmmfmmmfffmfmfmm, backbone not given here)”, for which the “% KD Human” value in data set [1] came out at 59 ± 3%. Also, the “% KD Mouse” value in data set [2] turned out to be 84 ± 2%.
For the substance “48049-DC: siNA duplex; sense SEQ ID NO: 63 B cGuGuGcAccGccAAAGAu TTB; antisense SEQ ID NO: 64 AUCuuuGGcGGuGcAcAcGUU (sense CGUGUGCACCGCCAAAGAUTT; antisense AUCUUUGGCGGUGCACACGUU; sense: DNA at AGT, 2'-fluoro at CU, [invAb] at 5' end, 3' end, backbone not given here; antisense: sugars from the 5' end rrrfffmmfmmfmfmfmfmmm, backbone not given here)”, the “% KD Human” value in data set [1] is reported as 27 ± 2%. The “% KD Mouse” value in data set [2] is given as −9 ± 6%.
The matching figures for “48076-DC: siNA duplex; sense SEQ ID NO: 117 B AcAGuAGcAcAuuAAuuuA TTB; antisense SEQ ID NO: 118 UAAAuuAAuGuGcuAcuGuUU (sense ACAGUAGCACAUUAAUUUATT; antisense UAAAUUAAUGUGCUACUGUUU; sense: DNA at AGT, 2'-fluoro at CU, [invAb] at 5' end, 3' end, backbone not given here; antisense: sugars from the 5' end rrrmffmmfmfmffmffmfmm, backbone not given here)”: −3 ± 1% and 84 ± 1%.
“48053-DC: siNA duplex; sense SEQ ID NO: 71 B cAGAGAGuGAGAGAcAuuA TTB; antisense SEQ ID NO: 72 UAAuGucucucAcucucuGUU (sense CAGAGAGUGAGAGACAUUATT; antisense UAAUGUCUCUCACUCUCUGUU; sense: DNA at AGT, 2'-fluoro at CU, [invAb] at 5' end, 3' end, backbone not given here; antisense: sugars from the 5' end rrrfmffffffmffffffmmm, backbone not given here)”: the “% KD Human” value in data set [1] stood at 45 ± 7%. Also, the “% KD Mouse” value in data set [2] is 26 ± 9%.
On to “48040-DC: siNA duplex; sense SEQ ID NO: 45 B GAGuGGAGcGccuGuuccA TTB; antisense SEQ ID NO: 46 UGGAAcAGGcGcuccAcucUU (sense GAGUGGAGCGCCUGUUCCATT; antisense UGGAACAGGCGCUCCACUCUU; sense: DNA at AGT, 2'-fluoro at CU, [invAb] at 5' end, 3' end, backbone not given here; antisense: sugars from the 5' end rrrmmfmmmfmffffmfffmm, backbone not given here)”, for which the “% KD Human” value in data set [1] is 13 ± 18%. Further, in data set [2], the “% KD Mouse” value was −1 ± 3%.
The corresponding values for “48067-DC: siNA duplex; sense SEQ ID NO: 99 B GGGucAAGcuGccuGGGAA TTB; antisense SEQ ID NO: 100 UUCccAGGcAGcuuGAcccUU (sense GGGUCAAGCUGCCUGGGAATT; antisense UUCCCAGGCAGCUUGACCCUU; sense: DNA at AGT, 2'-fluoro at CU, [invAb] at 5' end, 3' end, backbone not given here; antisense: sugars from the 5' end rrrffmmmfmmfffmmfffmm, backbone not given here)” are −3 ± 31% and 26 ± 5%.
The corresponding values for “48056-DC: siNA duplex; sense SEQ ID NO: 77 B cuGuGccuGccAuuAcAAc TTB; antisense SEQ ID NO: 78 GUUGuAAuGGcAGGcAcAGUU (sense CUGUGCCUGCCAUUACAACTT; antisense GUUGUAAUGGCAGGCACAGUU; sense: DNA at AGT, 2'-fluoro at CU, [invAb] at 5' end, 3' end, backbone not given here; antisense: sugars from the 5' end rrrmfmmfmmfmmmfmfmmmm, backbone not given here)” are 6 ± 7% and 20 ± 6%.
The matching figures for “48062-DC: siNA duplex; sense SEQ ID NO: 89 B ccAcucuGccAGuGGAGuu TTB; antisense SEQ ID NO: 90 AACuccAcuGGcAGAGuGGUU (sense CCACUCUGCCAGUGGAGUUTT; antisense AACUCCACUGGCAGAGUGGUU; sense: DNA at AGT, 2'-fluoro at CU, [invAb] at 5' end, 3' end, backbone not given here; antisense: sugars from the 5' end rrrfffmffmmfmmmmfmmmm, backbone not given here)”: −1 ± 18% and 12 ± 2%.
In the case of “48061-DC: siNA duplex; sense SEQ ID NO: 87 B AcucAuuAGAcuAuAAcuu TTB; antisense SEQ ID NO: 88 AAGuuAuAGucuAAuGAGuUU (sense ACUCAUUAGACUAUAACUUTT; antisense AAGUUAUAGUCUAAUGAGUUU; sense: DNA at AGT, 2'-fluoro at CU, [invAb] at 5' end, 3' end, backbone not given here; antisense: sugars from the 5' end rrrffmfmmfffmmfmmmfmm, backbone not given here)”, the “% KD Human” value in data set [1] is 30 ± 12%. In addition, the “% KD Mouse” value in data set [2] is 73 ± 5%.
The corresponding values for “48039-DC: siNA duplex; sense SEQ ID NO: 43 B ccuAucAAGuuuGAGcuuu TTB; antisense SEQ ID NO: 44 AAAGcucAAAcuuGAuAGGUU” are 81 ± 3% and 21±7%.
Turning to “48071-DC: siNA duplex; sense SEQ ID NO: 107 B ccAAcuAuGAuGcGAGccA TTB; antisense SEQ ID NO: 108 UGGcucGcAucAuAGuuGGUU (sense CCAACUAUGAUGCGAGCCATT; antisense UGGCUCGCAUCAUAGUUGGUU; sense: DNA at AGT, 2'-fluoro at CU, [invAb] at 5' end, 3' end, backbone not given here; antisense: sugars from the 5' end rrrfffmfmffmfmmffmmmm, backbone not given here)”, the “% KD Human” value in data set [1] is on record as 30 ± 15%. Further, the “% KD Mouse” value in data set [2] was 21 ± 5%.
